Literature values, collected in US20260263394A1, “MEDICAL PATCH […] […] AGENT” (LTS LOHMANN THERAPIE-SYSTEME AG, priority 2023, published 2026).

How the values were obtained:
TRPV1 = TRPV1 (Homo sapiens, UniProt Q8NER1); details: relative to capsaicin
[1] = sub-microgram (less than 1/1,000,000th of a gram) quantities, oral

Sequence of TRPV1 (Q8NER1 whole entry, species assumed): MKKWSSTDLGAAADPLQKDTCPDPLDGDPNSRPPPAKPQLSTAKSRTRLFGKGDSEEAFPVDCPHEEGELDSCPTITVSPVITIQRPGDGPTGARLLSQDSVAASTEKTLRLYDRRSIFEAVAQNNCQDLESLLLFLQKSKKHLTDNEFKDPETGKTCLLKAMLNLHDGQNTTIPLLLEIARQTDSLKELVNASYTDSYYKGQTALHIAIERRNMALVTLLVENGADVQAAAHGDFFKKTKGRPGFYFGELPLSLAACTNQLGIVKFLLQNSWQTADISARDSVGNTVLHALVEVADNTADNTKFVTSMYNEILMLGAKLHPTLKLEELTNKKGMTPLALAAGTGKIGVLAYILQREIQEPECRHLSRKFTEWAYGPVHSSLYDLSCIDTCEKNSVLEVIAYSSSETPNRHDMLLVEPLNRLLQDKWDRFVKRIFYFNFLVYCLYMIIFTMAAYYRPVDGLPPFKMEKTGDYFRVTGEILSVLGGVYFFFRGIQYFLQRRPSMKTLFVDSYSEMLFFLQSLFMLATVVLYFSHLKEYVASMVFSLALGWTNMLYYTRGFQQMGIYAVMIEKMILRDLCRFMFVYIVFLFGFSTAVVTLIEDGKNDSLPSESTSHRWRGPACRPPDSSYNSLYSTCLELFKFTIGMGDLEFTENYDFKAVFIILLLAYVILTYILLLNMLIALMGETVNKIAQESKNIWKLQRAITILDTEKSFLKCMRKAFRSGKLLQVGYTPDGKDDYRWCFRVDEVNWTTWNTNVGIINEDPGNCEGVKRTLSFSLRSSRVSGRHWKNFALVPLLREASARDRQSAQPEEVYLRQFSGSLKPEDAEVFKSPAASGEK

Q: Which “times higher binding affinity for TRPV1 than capsaicin” value (TRPV1) does the source give for `C=C(C)[C@]12C[C@@H](C)[C@@]34O[C@@](Cc5ccccc5)(O[C@@H]1[C@@H]3C=C(COC(=O)Cc1ccc(O)c(OC)c1)C[C@]1(O)C(=O)C(C)=C[C@@H]41)O2` [Resiniferatoxin, [(1R,2R,6R,10S,11R,13R, 15R, 17R)-13-benzyl-6-hydroxy-4,17-dimethyl-5-oxo-15-(prop-1-en-2-yl)-12,14,18-trioxapentacyclo [11.4.1.0^1,10.0^2,6.0^11,15]octadeca-3,8-dien-8-yl]methyl 2-(4-hydroxy-3-methoxyphenyl)acetate] here?
A: Its value is “about 500 times”.

Q: And the “effect when ingested orally” value [1]?
A: The value was “severe burning pain”.
